# Experimental data as given in ChEMBL document CHEMBL1147193, “New 5-substituted thiazolo[3,2-b][1,2,4]triazol-6-ones: synthesis and anticancer evaluation” (2007).
# Columns and labels:
# Type in all cases: functional
# NCI-H460 = assay: Anticancer activity against human NCI-H460 cells assessed as growth of cells at 100 uM relative to untreated cells
# SF-268 = assay: Anticancer activity against human SF268 cells assessed as growth of cells at 100 uM relative to untreated cells
# MCF7 = assay: Anticancer activity against human MCF7 cells assessed as growth of cells at 100 uM relative to untreated cells
smiles,measurement,setting,value
O=c1/c(=C/C=C\c2ccccc2)sc2ncnn12,Activity,NCI-H460,95%
same,Activity,SF-268,128%
same,Activity,MCF7,138%
